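Exposure lasted 48 hours, with cells grown in 96-well plates and compounds tested at five concentrations. TGI marks complete inhibition of growth.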
Columns and labels:
Experiment in all cases: NCI tumour cell line growth inhibition, 48 h
CCRF-CEM leukemia = system: CCRF-CEM leukemia
OVCAR-3 ovarian = system: OVCAR-3 ovarian
SNB-19 CNS = system: SNB-19 CNS
SNB-75 CNS = system: SNB-75 CNS
MOLT-4 leukemia = system: MOLT-4 leukemia
COLO 205 colon = system: COLO 205 colon
HCT-116 colon = system: HCT-116 colon
HT29 colon = system: HT29 colon
OVCAR-8 ovarian = system: OVCAR-8 ovarian
HCC-2998 colon = system: HCC-2998 colon
CAKI-1 renal = system: CAKI-1 renal
SK-MEL-2 melanoma = system: SK-MEL-2 melanoma
ACHN renal = system: ACHN renal
M14 melanoma = system: M14 melanoma
SK-MEL-28 melanoma = system: SK-MEL-28 melanoma
A498 renal = system: A498 renal
RPMI-8226 leukemia = system: RPMI-8226 leukemia
HS 578T breast = system: HS 578T breast
HCT-15 colon = system: HCT-15 colon
SF-268 CNS = system: SF-268 CNS
LOX IMVI melanoma = system: LOX IMVI melanoma
NCI-H226 lung = system: NCI-H226 lung
SF-295 CNS = system: SF-295 CNS
UACC-257 melanoma = system: UACC-257 melanoma
SF-539 CNS = system: SF-539 CNS
U251 CNS = system: U251 CNS
TK-10 renal = system: TK-10 renal
OVCAR-4 ovarian = system: OVCAR-4 ovarian
MDA-MB-231 breast = system: MDA-MB-231 breast
EKVX NSCLC = system: EKVX NSCLC
NCI-H522 lung = system: NCI-H522 lung
MCF7 breast = system: MCF7 breast
MDA-MB-435 = system: MDA-MB-435
786-0 renal = system: 786-0 renal
KM12 colon = system: KM12 colon
MALME-3M melanoma = system: MALME-3M melanoma
NCI-H460 lung = system: NCI-H460 lung
A549 NSCLC = system: A549 NSCLC
HOP-92 NSCLC = system: HOP-92 NSCLC
NCI-H23 lung = system: NCI-H23 lung
DU-145 prostate = system: DU-145 prostate
SR leukemia = system: SR leukemia
UACC-62 melanoma = system: UACC-62 melanoma
SK-MEL-5 melanoma = system: SK-MEL-5 melanoma
SW-620 colon = system: SW-620 colon
SN12C renal = system: SN12C renal
SK-OV-3 ovarian = system: SK-OV-3 ovarian
IGROV1 ovarian = system: IGROV1 ovarian
T-47D breast = system: T-47D breast
RXF 393 renal = system: RXF 393 renal
UO-31 renal = system: UO-31 renal
HL-60(TB) leukemia = system: HL-60(TB) leukemia

Measured: TGI

COc1cc2c(cc1OS(C)(=O)=O)N=C[C@@H]1CCCN1C2=O
> 100 µM: all assays above

From PubChem BioAssay (NCI)
